In PubChem BioAssay (NCI):
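Each compound was tested at five concentrations against cells in 96-well plates for 48 hours. At the TGI there is no net growth.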

Test system: SK-MEL-28 melanoma
Assay: NCI-60 cell line screen, 48 h

| SMILES | TGI |
| --- | --- |
| CCc1n[nH]c(=S)n1/N=C/c1ccc(-c2ccc([N+](=O)[O-])cc2)o1 | > 100 µM |
| CN(C)C(=S)NC(=S)Nc1ccc2ccccc2c1 | 40.3 µM |
| CCCCCCCCCCCCCCCC(=O)Nc1ccn(C2OC(CO)C(O)C2O)c(=O)n1 (stereo not drawn) | > 100 µM |

Test system: RXF 393 renal
Assay: NCI-60 cell line screen, 48 h

| SMILES | TGI |
| --- | --- |
| CN(C)C(=S)NC(=S)Nc1ccc2ccccc2c1 | 65.8 µM |
| CCCCCCCCCCCCCCCC(=O)Nc1ccn(C2OC(CO)C(O)C2O)c(=O)n1 (stereo not drawn) | > 97.2 µM |

Test system: EKVX NSCLC
Assay: NCI-60 cell line screen, 48 h

| SMILES | TGI |
| --- | --- |
| N#C/C(=C/c1cccc2ccccc12)C(=O)c1ccccc1 | > 10 µM |
| CN(C)C(=S)NC(=S)Nc1ccc2ccccc2c1 | 51.1 µM |
| CCCCCCCCCCCCCCCC(=O)Nc1ccn(C2OC(CO)C(O)C2O)c(=O)n1 (stereo not drawn) | > 100 µM |

Test system: HS 578T breast
Assay: NCI-60 cell line screen, 48 h

| SMILES | TGI |
| --- | --- |
| CN(C)C(=S)NC(=S)Nc1ccc2ccccc2c1 | 97.8 µM |
| CCCCCCCCCCCCCCCC(=O)Nc1ccn(C2OC(CO)C(O)C2O)c(=O)n1 (stereo not drawn) | > 91.4 µM |

Test system: U251 CNS
Assay: NCI-60 cell line screen, 48 h

| SMILES | TGI |
| --- | --- |
| N#C/C(=C/c1cccc2ccccc12)C(=O)c1ccccc1 | 37.9 µM |
| CCc1n[nH]c(=S)n1/N=C/c1ccc(-c2ccc([N+](=O)[O-])cc2)o1 | > 100 µM |
| CN(C)C(=S)NC(=S)Nc1ccc2ccccc2c1 | > 46.9 µM |
| CCCCCCCCCCCCCCCC(=O)Nc1ccn(C2OC(CO)C(O)C2O)c(=O)n1 (stereo not drawn) | > 100 µM |

Test system: CCRF-CEM leukemia
Assay: NCI-60 cell line screen, 48 h

| SMILES | TGI |
| --- | --- |
| N#C/C(=C/c1cccc2ccccc12)C(=O)c1ccccc1 | 39 µM |
| CN(C)C(=S)NC(=S)Nc1ccc2ccccc2c1 | 10.5 µM |
| CCCCCCCCCCCCCCCC(=O)Nc1ccn(C2OC(CO)C(O)C2O)c(=O)n1 (stereo not drawn) | 7.28 µM |

Test system: HOP-18 NSCLC
Assay: NCI-60 cell line screen, 48 h

| SMILES | TGI |
| --- | --- |
| CCCCCCCCCCCCCCCC(=O)Nc1ccn(C2OC(CO)C(O)C2O)c(=O)n1 (stereo not drawn) | > 100 µM |

Test system: SF-295 CNS
Assay: NCI-60 cell line screen, 48 h

| SMILES | TGI |
| --- | --- |
| N#C/C(=C/c1cccc2ccccc12)C(=O)c1ccccc1 | 44.4 µM |
| CCc1n[nH]c(=S)n1/N=C/c1ccc(-c2ccc([N+](=O)[O-])cc2)o1 | > 100 µM |
| CN(C)C(=S)NC(=S)Nc1ccc2ccccc2c1 | 18.8 µM |
| CCCCCCCCCCCCCCCC(=O)Nc1ccn(C2OC(CO)C(O)C2O)c(=O)n1 (stereo not drawn) | > 100 µM |

Test system: NCI-H522 lung
Assay: NCI-60 cell line screen, 48 h

| SMILES | TGI |
| --- | --- |
| N#C/C(=C/c1cccc2ccccc12)C(=O)c1ccccc1 | 54.6 µM |
| CCc1n[nH]c(=S)n1/N=C/c1ccc(-c2ccc([N+](=O)[O-])cc2)o1 | > 100 µM |
| CN(C)C(=S)NC(=S)Nc1ccc2ccccc2c1 | 32 µM |
| CCCCCCCCCCCCCCCC(=O)Nc1ccn(C2OC(CO)C(O)C2O)c(=O)n1 (stereo not drawn) | > 79.7 µM |

Test system: T-47D breast
Assay: NCI-60 cell line screen, 48 h

| SMILES | TGI |
| --- | --- |
| CN(C)C(=S)NC(=S)Nc1ccc2ccccc2c1 | 46 µM |
| CCCCCCCCCCCCCCCC(=O)Nc1ccn(C2OC(CO)C(O)C2O)c(=O)n1 (stereo not drawn) | > 100 µM |

Test system: TK-10 renal
Assay: NCI-60 cell line screen, 48 h

| SMILES | TGI |
| --- | --- |
| N#C/C(=C/c1cccc2ccccc12)C(=O)c1ccccc1 | > 100 µM |
| CCc1n[nH]c(=S)n1/N=C/c1ccc(-c2ccc([N+](=O)[O-])cc2)o1 | > 100 µM |
| CN(C)C(=S)NC(=S)Nc1ccc2ccccc2c1 | > 89.4 µM |
| CCCCCCCCCCCCCCCC(=O)Nc1ccn(C2OC(CO)C(O)C2O)c(=O)n1 (stereo not drawn) | > 100 µM |

Test system: 786-0 renal
Assay: NCI-60 cell line screen, 48 h

| SMILES | TGI |
| --- | --- |
| N#C/C(=C/c1cccc2ccccc12)C(=O)c1ccccc1 | 30.3 µM |
| CCc1n[nH]c(=S)n1/N=C/c1ccc(-c2ccc([N+](=O)[O-])cc2)o1 | > 100 µM |
| CN(C)C(=S)NC(=S)Nc1ccc2ccccc2c1 | > 64.8 µM |
| CCCCCCCCCCCCCCCC(=O)Nc1ccn(C2OC(CO)C(O)C2O)c(=O)n1 (stereo not drawn) | > 100 µM |

Test system: SNB-19 CNS
Assay: NCI-60 cell line screen, 48 h

| SMILES | TGI |
| --- | --- |
| N#C/C(=C/c1cccc2ccccc12)C(=O)c1ccccc1 | 41.6 µM |
| CCc1n[nH]c(=S)n1/N=C/c1ccc(-c2ccc([N+](=O)[O-])cc2)o1 | > 100 µM |
| CN(C)C(=S)NC(=S)Nc1ccc2ccccc2c1 | > 72.1 µM |
| CCCCCCCCCCCCCCCC(=O)Nc1ccn(C2OC(CO)C(O)C2O)c(=O)n1 (stereo not drawn) | > 80.8 µM |

Test system: HT29 colon
Assay: NCI-60 cell line screen, 48 h

| SMILES | TGI |
| --- | --- |
| N#C/C(=C/c1cccc2ccccc12)C(=O)c1ccccc1 | > 100 µM |
| CCc1n[nH]c(=S)n1/N=C/c1ccc(-c2ccc([N+](=O)[O-])cc2)o1 | > 100 µM |
| CN(C)C(=S)NC(=S)Nc1ccc2ccccc2c1 | 25.3 µM |
| CCCCCCCCCCCCCCCC(=O)Nc1ccn(C2OC(CO)C(O)C2O)c(=O)n1 (stereo not drawn) | > 100 µM |

Test system: LOX IMVI melanoma
Assay: NCI-60 cell line screen, 48 h

| SMILES | TGI |
| --- | --- |
| N#C/C(=C/c1cccc2ccccc12)C(=O)c1ccccc1 | 39.3 µM |
| CCc1n[nH]c(=S)n1/N=C/c1ccc(-c2ccc([N+](=O)[O-])cc2)o1 | > 100 µM |
| CN(C)C(=S)NC(=S)Nc1ccc2ccccc2c1 | 19.6 µM |
| CCCCCCCCCCCCCCCC(=O)Nc1ccn(C2OC(CO)C(O)C2O)c(=O)n1 (stereo not drawn) | 38 µM |

Test system: NCI-H460 lung
Assay: NCI-60 cell line screen, 48 h

| SMILES | TGI |
| --- | --- |
| N#C/C(=C/c1cccc2ccccc12)C(=O)c1ccccc1 | 78.2 µM |
| CCc1n[nH]c(=S)n1/N=C/c1ccc(-c2ccc([N+](=O)[O-])cc2)o1 | > 100 µM |
| CN(C)C(=S)NC(=S)Nc1ccc2ccccc2c1 | 22.4 µM |
| CCCCCCCCCCCCCCCC(=O)Nc1ccn(C2OC(CO)C(O)C2O)c(=O)n1 (stereo not drawn) | > 65.6 µM |

Test system: PC-3 prostate
Assay: NCI-60 cell line screen, 48 h

| SMILES | TGI |
| --- | --- |
| CN(C)C(=S)NC(=S)Nc1ccc2ccccc2c1 | 38.3 µM |
| CCCCCCCCCCCCCCCC(=O)Nc1ccn(C2OC(CO)C(O)C2O)c(=O)n1 (stereo not drawn) | > 100 µM |

Test system: HCC-2998 colon
Assay: NCI-60 cell line screen, 48 h

| SMILES | TGI |
| --- | --- |
| N#C/C(=C/c1cccc2ccccc12)C(=O)c1ccccc1 | 49.2 µM |
| CCc1n[nH]c(=S)n1/N=C/c1ccc(-c2ccc([N+](=O)[O-])cc2)o1 | > 100 µM |
| CN(C)C(=S)NC(=S)Nc1ccc2ccccc2c1 | 36.6 µM |
| CCCCCCCCCCCCCCCC(=O)Nc1ccn(C2OC(CO)C(O)C2O)c(=O)n1 (stereo not drawn) | > 100 µM |
